Patent US20260256792A1, “TREATMENT OF CHRONIC SPONTANEOUS URTICARIA BY ADMINISTERING (R)-2-[3-[4-AMINO-3-(2-FLUORO-4-PHENOXY-PHENYL)PYRAZOLO[3,4-D]PYRIMIDIN-1-YL]PIPERIDINE-1-CARBONYL]-4-METHYL-4-[4-(OXETAN-3-YL)PIPERAZIN-1-YL]PENT-2-ENENITRILE” (priority 2023, published 2026)

System: moderate-to-severe chronic spontaneous urticaria (CSU)
Assay: Phase 2 CSU study: urticaria control test (UCT)
Assay type: in vivo, human
Parameters: key to UCT, Mean / UCT, Median / UCT change from baseline, Mean / UCT change from baseline, Median: UCT total = sum of 4 item scores; low = low disease control
Excerpt: The study comprises a 12 week, randomized, double-blind, placebo-controlled, multi-center, dose-ranging efficacy and safety phase, followed by a 40 week open label extension (OLE) phase (see FIG. 1). The study consists of three phases and an optional OLE phase. […] To this end, the UCT was proposed as a tertiary endpoint in this study. […] The dermatology life quality index (DLQI) was proposed as a tertiary endpoint in this study. […] Low scores indicate high disease activity and low disease control. The UCT total score is calculated by adding all 4 individual item scores. […] The recall period is the previous 4 weeks. Patients were to complete the UCT questionnaire during their site visit.

[1] = 400 mg QPM, Week 8, ITT population
[2] = 400 mg QPM, Week 8, omalizumab-naïve population
[3] = 400 mg QPM, Week 8, prior omalizumab use incl. incomplete responders
[4] = 400 mg QPM, Week 12, ITT population
[5] = 400 mg QPM, Week 12, omalizumab-naïve population
[6] = 400 mg QPM, Week 12, prior omalizumab use incl. incomplete responders
[7] = 400 mg TID, End of study, omalizumab-naïve population
[8] = 400 mg TID, End of study, prior omalizumab use incl. incomplete responders
[9] = 400 mg TID, Week 4, ITT population
[10] = 400 mg TID, Week 4, omalizumab-naïve population
[11] = 400 mg TID, Week 4, prior omalizumab use incl. incomplete responders
[12] = 400 mg TID, Week 8, ITT population
[13] = 400 mg TID, Week 8, omalizumab-naïve population
[14] = 400 mg TID, Week 8, prior omalizumab use incl. incomplete responders
[15] = 400 mg TID, Week 12, ITT population
[16] = 400 mg TID, Week 12, omalizumab-naïve population
[17] = 400 mg TID, Week 12, prior omalizumab use incl. incomplete responders

CC(C)(C=C(C#N)C(=O)N1CCC[C@@H](n2nc(-c3ccc(Oc4ccccc4)cc3F)c3c(N)ncnc32)C1)N1CCN(C2COC2)CC1 [rilzabrutinib, (R)-2-[3-[4-amino-3-(2-fluoro-4-phenoxy-phenyl)pyrazolo[3,4-d]pyrimidin-1-yl]piperidine-1-carbonyl]-4-methyl-4-[4-(oxetan-3-yl)piperazin-1-yl]pent-2-enenitrile]
UCT % Change difference for rilzabrutinib vs. placebo LS Mean (95% CI) [1]: −37.84 (−167.44, 91.76) %
UCT % Change from baseline LS Mean (SE) [1]: 126.71 (44.63) %
UCT Change difference for rilzabrutinib vs. placebo LS Mean (95% CI) [1]: −1.21 (−3.16, 0.74)
UCT Change from baseline LS Mean (SE) [1]: 3.16 (0.71)
UCT Post-baseline Mean (SD) [1]: 6.97 (3.84)
UCT % Change difference for rilzabrutinib vs. placebo LS Mean (95% CI) [2]: −48.49 (−177.78, 80.81) %
UCT % Change from baseline LS Mean (SE) [2]: 121.09 (44.66) %
UCT Change difference for rilzabrutinib vs. placebo LS Mean (95% CI) [2]: −1.49 (−3.43, 0.45)
UCT Change from baseline LS Mean (SE) [2]: 2.98 (0.71)
UCT Post-baseline Mean (SD) [2]: 6.84 (3.84)
UCT change from baseline, Mean [2]: 3.09
UCT change from baseline, Median [2]: 2.00
UCT percent change from baseline, Mean [2]: 138.85%
UCT, Median [2]: 7.00
UCT change from baseline, Mean [3]: 6.00
UCT change from baseline, Median [3]: 6.00
UCT percent change from baseline, Mean [3]: 120.00%
UCT percent change from baseline, Median [3]: 120.00%
UCT % Change difference for rilzabrutinib vs. placebo LS Mean (95% CI) [4]: −100.02 (−238.68, 38.64) %
UCT % Change from baseline LS Mean (SE) [4]: 99.76 (47.53) %
UCT Change difference for rilzabrutinib vs. placebo LS Mean (95% CI) [4]: −1.82 (−3.87, 0.23)
UCT Change from baseline LS Mean (SE) [4]: 2.92 (0.76)
UCT Post-baseline Mean (SD) [4]: 6.97 (3.84)
UCT % Change difference for rilzabrutinib vs. placebo LS Mean (95% CI) [5]: −105.95 (−247.17, 35.27) %
UCT Change difference for rilzabrutinib vs. placebo LS Mean (95% CI) [5]: −1.96 (−3.99, 0.08)
UCT Change from baseline LS Mean (SE) [5]: 2.77 (0.75)
UCT Post-baseline Mean (SD) [5]: 6.88 (3.86)
UCT change from baseline, Mean [5]: 3.13
UCT change from baseline, Median [5]: 2.00
UCT percent change from baseline, Mean [5]: 121.74%
UCT percent change from baseline, Median [5]: 92.86%
UCT, Median [5]: 7.00
UCT change from baseline, Mean [6]: 5.00
UCT change from baseline, Median [6]: 5.00
UCT percent change from baseline, Mean [6]: 100.00%
UCT percent change from baseline, Median [6]: 100.00%
UCT over baseline (400 mg TID): mild increase
UCT change from baseline, Mean [7]: 4.00
UCT change from baseline, Median [7]: 4.00
UCT percent change from baseline, Mean [7]: 41.03%
UCT percent change from baseline, Median [7]: 41.03%
UCT change from baseline, Mean [8]: 11.60
UCT change from baseline, Median [8]: 13.00
UCT percent change from baseline, Mean [8]: 7.80%
UCT percent change from baseline, Median [8]: 9.00%
UCT, Mean [8]: 4.83
UCT, Median [8]: 4.00
UCT % Change difference for rilzabrutinib vs. placebo LS Mean (95% CI) [9]: 122.56 (−10.01, 255.13) %
UCT % Change from baseline LS Mean (SE) [9]: 262.11 (48.72) %
UCT Change difference for rilzabrutinib vs. placebo LS Mean (95% CI) [9]: 2.34 (0.46, 4.22)
UCT Change from baseline LS Mean (SE) [9]: 5.68 (0.68)
UCT Post-baseline Mean (SD) [9]: 10.03 (4.20)
UCT % Change difference for rilzabrutinib vs. placebo LS Mean (95% CI) [10]: 124.43 (−9.74, 258.61) %
UCT % Change from baseline LS Mean (SE) [10]: 267.24 (49.68) %
UCT Change difference for rilzabrutinib vs. placebo LS Mean (95% CI) [10]: 2.23 (0.33, 4.13)
UCT Change from baseline LS Mean (SE) [10]: 5.47 (0.70)
UCT Post-baseline Mean (SD) [10]: 9.77 (4.17)
UCT change from baseline, Mean [10]: 5.63
UCT change from baseline, Median [10]: 6.50
UCT percent change from baseline, Mean [10]: 254.30%
UCT percent change from baseline, Median [10]: 100.00%
UCT change from baseline, Mean [11]: 7.80
UCT change from baseline, Median [11]: 9.00
UCT percent change from baseline, Mean [11]: 146.88%
UCT percent change from baseline, Median [11]: 143.75%
UCT, Median [11]: 13.00
UCT % Change difference for rilzabrutinib vs. placebo LS Mean (95% CI) [12]: 108.30 (−18.30, 234.90) %
UCT % Change from baseline LS Mean (SE) [12]: 272.85 (43.60) %
UCT Change difference for rilzabrutinib vs. placebo LS Mean (95% CI) [12]: 1.43 (−0.50, 3.37)
UCT Change from baseline LS Mean (SE) [12]: 5.80 (0.69)
UCT Post-baseline Mean (SD) [12]: 10.00 (3.85)
UCT % Change difference for rilzabrutinib vs. placebo LS Mean (95% CI) [13]: 102.55 (−31.38, 236.49) %
UCT % Change from baseline LS Mean (SE) [13]: 272.13 (49.40) %
UCT Change difference for rilzabrutinib vs. placebo LS Mean (95% CI) [13]: 1.19 (−0.75, 3.12)
UCT Change from baseline LS Mean (SE) [13]: 5.66 (0.71)
UCT Post-baseline Mean (SD) [13]: 9.80 (3.86)
UCT change from baseline, Median [13]: 6.50
UCT percent change from baseline, Mean [13]: 277.48%
UCT percent change from baseline, Median [13]: 120.83%
UCT, Median [13]: 9.50
UCT change from baseline, Median [14]: 5.00
UCT percent change from baseline, Mean [14]: 107.33%
UCT percent change from baseline, Median [14]: 25.00%
UCT % Change difference for rilzabrutinib vs. placebo LS Mean (95% CI) [15]: 122.43 (−16.89, 261.74) %
UCT % Change from baseline LS Mean (SE) [15]: 322.21 (47.00) %
UCT Change difference for rilzabrutinib vs. placebo LS Mean (95% CI) [15]: 1.80 (−0.20, 3.79)
UCT Change from baseline LS Mean (SE) [15]: 6.53 (0.70)
UCT Post-baseline Mean (SD) [15]: 10.69 (4.25)
UCT % Change difference for rilzabrutinib vs. placebo LS Mean (95% CI) [16]: 131.76 (−18.16, 281.68) %
UCT % Change from baseline LS Mean (SE) [16]: 329.00 (51.79) %
UCT Change difference for rilzabrutinib vs. placebo LS Mean (95% CI) [16]: 1.58 (−0.47, 3.63)
UCT Change from baseline LS Mean (SE) [16]: 6.31 (0.76)
UCT change from baseline, Median [16]: 6.00
UCT percent change from baseline, Mean [16]: 311.71%
UCT percent change from baseline, Median [16]: 102.86%
UCT change from baseline, Mean [17]: 8.00
UCT change from baseline, Median [17]: 9.00
UCT percent change from baseline, Mean [17]: 156.25%
UCT percent change from baseline, Median [17]: 162.50%
patients achieving a UCT≥12 (400 mg TID, over time up to Week 12): > 20%
